Where two headings read alike, the source gives them in different places.
System: L. (L.) infantum chagasi promastigotes
Experiment: In vitro growth of promastigotes in FBS supplemented Schneider's insect medium
Assay type: cell-based, Leishmania (L.) infantum chagasi
Conditions: Leishmania infantum
From the text: The strain of Leishmania (L.) infantum chagasi MHOM/BR/1974/PP75 was obtained from the Leishmania Type Culture Collection (Fundacão Oswaldo Cruz, Rio de Janeiro, RJ, Brazil) and the strain of Leishmania (L.) amazonensis (MHOM/BR/1975/Josefa) was kindly given by Professor Rosâ[…] from Universidade Federal do Rio de Janeiro. Promastigotes were maintained by weekly transfers in screw-capped glass tubes containing Schneider's insect medium (Sigma Aldrich, MO, USA), pH 7.0, supplemented with 10% Fetal Bovine Serum (FBS) at 26°C. […] Log phase promastigotes of L. (L.) infantum chagasi and L. […] Promastigotes were recorded in a Neubauer chamber after 24, 48, 72 and 96 hours of incubation at 26°C. […] The concentration of adenosine in Schneider s insect serum supplemented medium was assessed by HPLC using a C-18 reverse-phase column as described.

With Nc1ncnc2c(C3N[C@H](CO)[C@@H](O)[C@H]3O)c[nH]c12 (stereo partly shown) [IA] as the molecule, how does the IC50 (drugs added at 0, 24 and 48 h, after 48h, read-out: IC50 on promastigote growth, daily addition) read?
The IC50 was 3.6 µM.

And the IC50 (drugs added at 0, 24 and 48 h, at 72 and 96 h, read-out: IC50 on promastigote growth, daily addition)?
The IC50 was under 0.05 µM.

And the IC50 (single addition at 0 h, evaluated after 48 hours, 26°C, read-out: IC50 (CI 95%) on L. (L.) infantum chagasi promastigotes in vitro growth)?
Its IC50 is 23.9 µM.

What about the inhibition at 500 µM (500 μM, after 96 h of culture, read-out: percent inhibition on L. (L.) infantum chagasi promastigote growth) of the same molecule?
Its inhibition at 500 µM is 78%.

Reference: article PMC4409337, “Immucillins Impair Leishmania (L.) infantum chagasi and Leishmania (L.) amazonensis Multiplication In Vitro” (PLoS ONE, 2015)
